Laboratory results taken from patent publication US20070006551A1, “Method and apparatus for sterilizing and filling containers” (priority 2005, published 2007).
Several values for one entry are separate records, joined by “and”; a condition that tells them apart may be missing. Identical values can stand only once. Like-named read-outs stand apart in the source and are kept apart here.

Key:
[1] = test system: B. subtilis var. globigii (ATCC. 9372); settings: 50° C.; for bacteriocidal effect (in words): Table Two conditions; for CFU/Swab / logCFU/Swab / Average (logCFU/Swab) / Log reduction: Table Two; for CFU/Swab / logCFU/Swab: contact times as in the label, one value per replicate; for Average (logCFU/Swab): mean of replicates; for Log reduction: versus inoculated untreated control (6.66)
Protocol: (§1) The experiments were designed to identify the conditions optimal for polymer sterilization and also explore the boundary areas to determine the conditions limiting the efficacy of the treatment. Each polymer strip was inoculated by drop spotting approximately 100 micro-liters and coating the surface by swabbing the surface of the polyethylene strip. The culture was allowed to dry before sterilization. Each strip of polyethylene was treated by vigorously agitating the strip in the appropriate treatment solutions. Each treated polymer strip was then treated with catalase to inactivate residual peroxide, swabbed and plated using TGE incubated at 35° C. for two days.
A log measurement value is provided below each of the non-log values. The sterilization was conducted at 50° C.

[2] = test system: B. subtilis var. globigii (ATCC. 9372)
Protocol: as §1
Five replicate polymer strips were used for each of the two methods of the present invention. A log measurement value is provided below each of the non-log values. The first method uses hydrogen peroxide first and then an alkaline solution of sodium hydroxide. The second method uses an alkaline solution of sodium hydroxide first and then hydrogen peroxide. The sterilization was conducted at 50° C.
In Table Three, a solution of 0.1 Normal potassium hydroxide (KOH) was utilized with a solution of 3% hydrogen peroxide at a temperature of 35° C. for 30 seconds.

[3] = Table Three, 35° C. for 30 seconds, one value per replicate

For `[Na+].[OH-]` [50° C. 10 s 0.25M NaOH Control, sodium hydroxide], the “bacteriocidal effect (in words)” value [1] was “no bacteriocidal effect”, the CFU/Swab [1] was 3,800,000 CFU/Swab and 7,900,000 CFU/Swab and 5,400,000 CFU/Swab and 6,300,000 CFU/Swab and the logCFU/Swab [1] was 6.80 logCFU/Swab and 6.58 logCFU/Swab and 6.90 logCFU/Swab and 6.73 logCFU/Swab. The “Average (logCFU/Swab)” value [1] was 6.75.
`OO` [50° C. 30 s 3.5% H2O2 10 s catalase, hydrogen peroxide] was tested, and the “bacteriocidal effect (in words)” value [1] was “no effect”, the CFU/Swab [1] was 4,200,000 CFU/Swab and 4,000,000 CFU/Swab and 3,000,000 CFU/Swab and 5,000,000 CFU/Swab and 1,600,000 CFU/Swab and the logCFU/Swab [1] was 6.20 logCFU/Swab and 6.62 logCFU/Swab and 6.60 logCFU/Swab and 6.48 logCFU/Swab and 6.70 logCFU/Swab. The “Average (logCFU/Swab)” value [1] was 6.52 and the Log reduction [1] was 0.14.
With `OO` [50° C. 30 s 35% H2O2 10 s catalase, hydrogen peroxide] the rate of inactivation ([1]; thirty second treatment) was 1.45 log per 10 seconds of treatment, the CFU/Swab [1] was 570 CFU/Swab and 20 CFU/Swab and 270 CFU/Swab and 2700 CFU/Swab and 40 CFU/Swab and the logCFU/Swab [1] was 1.60 logCFU/Swab and 2.76 logCFU/Swab and 1.30 logCFU/Swab and 2.43 logCFU/Swab and 3.43 logCFU/Swab. The “Average (logCFU/Swab)” value [1] was 2.30, the Log reduction [1] was 4.35 and the Log reduction ([1]; listed as thirty second hydrogen peroxide treatment (column 4)) was 4.35.
For `OO` [H2O2 Control, hydrogen peroxide], the CFU/Swab [2, 3] was 5,200,000 CFU/Swab and the logCFU/Swab [2, 3] was 6.72 logCFU/Swab.
`[Na+].[OH-]` [1M NaOH Control, sodium hydroxide] was tested, and the CFU/Swab ([2]; Table One, 50° C., survivors after treatment, inoculum 10^6, one value per replicate strip) was 5,700 CFU/Swab and 210 CFU/Swab and the logCFU/Swab ([2]; Table One, 50° C., survivors after treatment, one value per replicate strip) was 3.76 logCFU/Swab and 2.32 logCFU/Swab.
